From patent US8349553B2, “Jasmonate based assays for identifying compounds that selectively inhibit mitochondrial bound hexokinases” (Ramot at Tel Aviv University Ltd., priority 2007, dated 2013)

Legend:
[1] = test system: mitochondria-bound hexokinase (mitochondrial fraction of BCL-1 leukemic cells); assay: Hexokinase detachment assay, mitochondrial fraction of BCL-1 leukemic cells; assay type: biochemical, murine; conditions: BCL-1 mitochondrial fraction; 30 minutes at 37° C.
Procedure: Mitochondrial fraction was prepared by mechanical lysis and differential centrifugation. All stages were performed on ice. Cells or extracted tissues were washed with PBS and disrupted by homogenization in extraction buffer (Sucrose 250 mM, HEPES-NaOH 10 mM, pH 7.2) freshly supplemented with 0.1 mM EDTA and Protease Inhibitors cocktail (Sigma). For each gram of cells or tissue, 4 volumes of extraction buffer were applied. The homogenate volume was doubled with the extraction buffer, and tissue and cell debris as well as nuclei were pelleted by centrifugation of 1,000 g for 10 minutes. The supernatant was further spun at 13,000 g for 10 minutes twice. Endoplasmic reticulum layer was removed. The pellet, designated as the mitochondrial fraction, was suspended in the appropriate buffer, depending on the assay for which the mitochondrial fraction was prepared. Mitochondrial fractions were used immediately or stored at −196° C. […] Activity of hexokinase in the supernatant (i.e., activity of the detached hexokinase) was determined spectrophotometrically at 340 nm. […] Mitochondrial fractions isolated from different cancer cells, namely Molt-4 cells, BCL-1 leukemic cells and B16 melanoma tumors were incubated for 30 minutes at 37° C., and the activity of unbound hexokinase was measured and compared to the activity of spontaneously (control) detached hexokinase. […]

[2] = test system: CT26 cells transfected with pcDNA3-HKII or pcDNA3; assay: ATP depletion in CT26 cells over-expressing hexokinase II; assay type: cell-based, murine; conditions: 60 minutes exposure
Procedure: The CellTiter-Glo™ Luminescent Cell Viability Assay (Promega, Madison, Wis., U.S.A.) was employed (Fingrut, 2005). Upon completion of a given experiment, plates were equilibrated to room temperature. CellTiter-Glo™ reagent containing luciferin and luciferase was added to each well and the plates were mixed on an orbital shaker for 2 minutes to induce cell lysis. In the presence of ATP, Mg^2+ and molecular oxygen, mono-oxidation of luciferin is catalyzed by luciferase, generating a luminescence signal. Cells were then incubated for 10 minutes at room temperature to stabilize the luminescence signal. Luminescence was recorded using Kodak digital science—Image station 440 CD. Luminescence is directly proportional to ATP concentration. ATP depletion (% of control) was calculated in the following way: {(luminescence of control cells−luminescence of drug-treated cells)/luminescence of control cells}×100.

purified rat brain HKI = target: T1, purified rat brain HKI (Rattus norvegicus, UniProt P05708); assay: Surface plasmon resonance analysis of jasmonate-HK interactions; assay type: binding; conditions: analyte injected at varying concentrations (MJ 0.375-6 mM); 25° C.
T1 construct: from tissue; host or cells: rat brain mitochondria
Procedure: Rat brain HK-I was purified as following, crude brain mitochondria containing tightly bound HK-I were incubated with 1.2 mM glucose-6-phosphate and 0.5 mM K-EDTA to release the enzyme into the soluble fraction. Further purification of HK-I was achieved by affinity chromatography on Cibacron Blue-agarose (Pharmacia). The purified enzyme was concentrated and washed in 0.5 mM K-EDTA, 10 mM glucose, 1 mM dithiothreitol and 10 mM K-Hepes, pH 7.8, using an Amicon device and a 50,000 Da molecular mass cut-off membrane (Spectrum; type C). The concentrated enzyme (up to 1 mg/ml; 30-60 units/mg) was frozen in liquid nitrogen and stored at −80° C. until use (Azoulay-Zohar, 2004).
Surface plasmon resonance (SPR) is an optical biosensor technique that measures molecular binding events at a metal surface by detecting changes in the local refractive index. SPR is the surface-sensitive technique ideal for studying interactions between immobilized biomolecules (ligands) and a solution-phase analyte. The biosensor response is directly proportional to the mass of the bound analyte. The advantage of SPR for investigation of small molecular weight analytes over conventional techniques such as fluorescence or enzyme-linked immunosorbent assay is detection of an analyte being label-free and direct, without the need for labeling of analyte or multistep detection protocols (sandwich assay). […]

T1 sequence (P05708 whole entry): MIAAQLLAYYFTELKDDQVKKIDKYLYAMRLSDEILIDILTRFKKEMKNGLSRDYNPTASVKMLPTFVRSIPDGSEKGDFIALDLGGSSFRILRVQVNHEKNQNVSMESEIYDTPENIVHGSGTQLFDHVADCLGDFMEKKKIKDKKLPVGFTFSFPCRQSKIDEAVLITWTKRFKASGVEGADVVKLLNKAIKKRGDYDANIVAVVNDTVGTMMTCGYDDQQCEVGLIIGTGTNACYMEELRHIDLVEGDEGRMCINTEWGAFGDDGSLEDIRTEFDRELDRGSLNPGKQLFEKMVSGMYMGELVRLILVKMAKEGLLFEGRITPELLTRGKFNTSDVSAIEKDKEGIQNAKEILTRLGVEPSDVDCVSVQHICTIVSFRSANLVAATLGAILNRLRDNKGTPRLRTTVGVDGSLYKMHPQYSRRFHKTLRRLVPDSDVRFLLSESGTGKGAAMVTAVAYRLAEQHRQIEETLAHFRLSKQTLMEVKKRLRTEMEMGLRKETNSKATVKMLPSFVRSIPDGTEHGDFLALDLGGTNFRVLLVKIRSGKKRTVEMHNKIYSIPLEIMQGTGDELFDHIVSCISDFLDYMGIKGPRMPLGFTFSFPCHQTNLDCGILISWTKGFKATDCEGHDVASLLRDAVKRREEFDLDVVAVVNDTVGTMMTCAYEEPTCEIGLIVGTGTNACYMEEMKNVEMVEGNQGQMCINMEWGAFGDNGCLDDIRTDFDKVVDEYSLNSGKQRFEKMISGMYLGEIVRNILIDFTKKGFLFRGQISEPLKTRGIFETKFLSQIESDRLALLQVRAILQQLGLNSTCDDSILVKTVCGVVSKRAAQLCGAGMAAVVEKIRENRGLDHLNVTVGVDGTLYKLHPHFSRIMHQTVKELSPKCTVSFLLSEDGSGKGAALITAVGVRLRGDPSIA

In the case of `CC/C=C\CC1C(=O)CCC1CC(=O)OC` (stereo not drawn) [methyl jasmonate], the “detachment of hexokinase (activity of unbound hexokinase compared to control)” value [1] is reported as “detached hexokinase from mitochondrial fraction isolated from the three different cancer cells”, the “depletion of cellular ATP levels, hexokinase II over-expressing vs. control cells” value [2] is reported as “decreased in cells with higher expression of hexokinase II” and the “binding to immobilized hexokinase (SPR)” value (purified rat brain HKI) is reported as “bind to purified rat brain HKI in a dose-dependent manner”.
